According to the supplement of paper PMC10307832:

Assays:
Experiment in all cases: relative viability (nuclei count vs DMSO), 5 days (fraction); higher = more cells survive
[1] = tested on: BEN
Procedure, shortened: (§1)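 After 5 days of treatment, lung cancer cells in 1536-well plates were fixed and stained in a single step (final 0.05% Triton X-100, 1% formaldehyde, 1 ug/ml Hoechst) and their nuclei counted on 4× images. Treatment had been applied by pin tool the day after seeding as one drug alone or as a fixed anchor-drug dose with five library-drug doses (not always all listed) in √10 steps. Relative viability is the nuclei count of treated wells divided by that of vehicle wells, and values are medians of duplicate plates.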

[2] = tested on: NCI-H2087
Procedure, shortened: as §1

[3] = tested on: SW 1573
Procedure, shortened: as §1

[4] = tested on: NCI-H1650
Procedure, shortened: as §1

[5] = tested on: HCC-827
Procedure, shortened: as §1

[6] = tested on: A-427
Procedure, shortened: as §1

[7] = tested on: COR-L23
Procedure, shortened: as §1

[8] = tested on: NCI-H2126
Procedure, shortened: as §1

[9] = tested on: LCLC-103H
Procedure, shortened: as §1

[10] = tested on: 201T
Procedure, shortened: as §1

[11] = tested on: NCI-H1793
Procedure, shortened: as §1

[12] = tested on: NCI-H1651
Procedure, shortened: as §1

[13] = tested on: EMC-BAC-2
Procedure, shortened: as §1

[14] = tested on: NCI-H441
Procedure, shortened: as §1

[15] = tested on: EPLC-272H
Procedure, shortened: as §1

[16] = tested on: NCI-H460
Procedure, shortened: as §1

[17] = tested on: HCC-44
Procedure, shortened: as §1

[18] = tested on: LK-2
Procedure, shortened: as §1

[19] = tested on: NCI-H1915
Procedure, shortened: as §1

[20] = tested on: NCI-H2347
Procedure, shortened: as §1

[21] = tested on: EKVX
Procedure, shortened: as §1

[22] = tested on: NCI-H358
Procedure, shortened: as §1

[23] = tested on: SW 900
Procedure, shortened: as §1

[24] = tested on: LXF-289
Procedure, shortened: as §1

CCCCCCCCCCCC1=C(O)C(=O)C=C(O)C1=O [Embelin] + CC(=O)c1c(C)c2cnc(Nc3ccc(N4CCNCC4)cn3)nc2n(C2CCCC2)c1=O [Palbociclib] (partner 0.5 µM) gave a relative viability ([1]; first compound 0.08 µM) of 0.486, a relative viability ([1]; first compound 0.8 µM) of 0.545 and a relative viability ([1]; first compound 2.53 µM) of 0.486. The relative viability ([1]; first compound 8 µM) was 0.481, the relative viability ([2]; first compound 0.08 µM) was 0.236 and the relative viability ([2]; first compound 0.8 µM) was 0.227. It also gave a relative viability ([2]; first compound 2.53 µM) of 0.266, a relative viability ([2]; first compound 8 µM) of 0.248 and a relative viability ([3]; first compound 0.08 µM) of 0.344. For the same molecule, the relative viability ([3]; first compound 0.8 µM) was 0.498, the relative viability ([3]; first compound 2.53 µM) was 0.37 and the relative viability ([3]; first compound 8 µM) was 0.422. The relative viability ([4]; first compound 0.08 µM) was 0.358, the relative viability ([4]; first compound 0.8 µM) was 0.406 and the relative viability ([4]; first compound 2.53 µM) was 0.38. For the same molecule, the relative viability ([4]; first compound 8 µM) was 0.354, the relative viability ([5]; first compound 0.08 µM) was 0.506 and the relative viability ([5]; first compound 0.8 µM) was 0.486. The relative viability ([5]; first compound 2.53 µM) was 0.511, the relative viability ([5]; first compound 8 µM) was 0.461 and the relative viability ([6]; first compound 0.08 µM) was 0.525. For the same molecule, the relative viability ([6]; first compound 0.8 µM) was 0.563, the relative viability ([6]; first compound 2.53 µM) was 0.526 and the relative viability ([6]; first compound 8 µM) was 0.496. It also gave a relative viability ([7]; first compound 0.08 µM) of 0.346, a relative viability ([7]; first compound 0.8 µM) of 0.351 and a relative viability ([7]; first compound 2.53 µM) of 0.313. For the same molecule, the relative viability ([7]; first compound 8 µM) was 0.299, the relative viability ([8]; first compound 0.08 µM) was 0.342 and the relative viability ([8]; first compound 0.8 µM) was 0.342. For the same molecule, the relative viability ([8]; first compound 2.53 µM) was 0.345, the relative viability ([8]; first compound 8 µM) was 0.339 and the relative viability ([9]; first compound 0.08 µM) was 0.496. The relative viability ([9]; first compound 0.8 µM) was 0.459, the relative viability ([9]; first compound 2.53 µM) was 0.461 and the relative viability ([9]; first compound 8 µM) was 0.511. For the same molecule, the relative viability ([10]; first compound 0.08 µM) was 0.375, the relative viability ([10]; first compound 0.8 µM) was 0.377 and the relative viability ([10]; first compound 2.53 µM) was 0.391. For the same molecule, the relative viability ([10]; first compound 8 µM) was 0.353, the relative viability ([11]; first compound 0.08 µM) was 0.317 and the relative viability ([11]; first compound 0.8 µM) was 0.363. It also gave a relative viability ([11]; first compound 2.53 µM) of 0.411, a relative viability ([11]; first compound 8 µM) of 0.363 and a relative viability ([12]; first compound 0.08 µM) of 0.503. The relative viability ([12]; first compound 0.8 µM) was 0.543, the relative viability ([12]; first compound 2.53 µM) was 0.547 and the relative viability ([12]; first compound 8 µM) was 0.488. For the same molecule, the relative viability ([13]; first compound 0.08 µM) was 0.511, the relative viability ([13]; first compound 0.8 µM) was 0.547 and the relative viability ([13]; first compound 2.53 µM) was 0.536. It also gave a relative viability ([13]; first compound 8 µM) of 0.485, a relative viability ([14]; first compound 0.08 µM) of 0.217 and a relative viability ([14]; first compound 0.8 µM) of 0.221. For the same molecule, the relative viability ([14]; first compound 2.53 µM) was 0.193, the relative viability ([14]; first compound 8 µM) was 0.195 and the relative viability ([15]; first compound 0.08 µM) was 0.361. It also gave a relative viability ([15]; first compound 0.8 µM) of 0.328, a relative viability ([15]; first compound 2.53 µM) of 0.358 and a relative viability ([15]; first compound 8 µM) of 0.324. The relative viability ([16]; first compound 0.08 µM) was 0.169, the relative viability ([16]; first compound 0.8 µM) was 0.227 and the relative viability ([16]; first compound 2.53 µM) was 0.134. For the same molecule, the relative viability ([16]; first compound 8 µM) was 0.156, the relative viability ([17]; first compound 0.08 µM) was 0.951 and the relative viability ([17]; first compound 0.8 µM) was 1.02. For the same molecule, the relative viability ([17]; first compound 2.53 µM) was 0.984, the relative viability ([17]; first compound 8 µM) was 0.979 and the relative viability ([18]; first compound 0.08 µM) was 0.647. For the same molecule, the relative viability ([18]; first compound 0.8 µM) was 0.753, the relative viability ([18]; first compound 2.53 µM) was 0.806 and the relative viability ([18]; first compound 8 µM) was 0.702. For the same molecule, the relative viability ([19]; first compound 0.08 µM) was 0.543, the relative viability ([19]; first compound 0.8 µM) was 0.56 and the relative viability ([19]; first compound 2.53 µM) was 0.583. For the same molecule, the relative viability ([19]; first compound 8 µM) was 0.522, the relative viability ([20]; first compound 0.08 µM) was 0.47 and the relative viability ([20]; first compound 0.8 µM) was 0.387. For the same molecule, the relative viability ([20]; first compound 2.53 µM) was 0.451, the relative viability ([20]; first compound 8 µM) was 0.389 and the relative viability ([21]; first compound 0.08 µM) was 0.411. It also gave a relative viability ([21]; first compound 0.8 µM) of 0.432, a relative viability ([21]; first compound 2.53 µM) of 0.466 and a relative viability ([21]; first compound 8 µM) of 0.394. For the same molecule, the relative viability ([22]; first compound 0.08 µM) was 0.133, the relative viability ([22]; first compound 0.8 µM) was 0.161 and the relative viability ([22]; first compound 2.53 µM) was 0.141. It also gave a relative viability ([22]; first compound 8 µM) of 0.131, a relative viability ([23]; first compound 0.08 µM) of 0.644 and a relative viability ([23]; first compound 0.8 µM) of 0.576. For the same molecule, the relative viability ([23]; first compound 2.53 µM) was 0.668, the relative viability ([23]; first compound 8 µM) was 0.549 and the relative viability ([24]; first compound 0.08 µM) was 0.594. For the same molecule, the relative viability ([24]; first compound 0.8 µM) was 0.59, the relative viability ([24]; first compound 2.53 µM) was 0.649 and the relative viability ([24]; first compound 8 µM) was 0.613.
